Test results published in US20260315497A1, “COMPOSITION FOR TREATING EPILEPSY” (CanaQuest Medical Corp., priority 2022, published 2026).

Experiments:
Assay type in all cases: in vivo, Male, CF-1 male mice
[1] = Maximal Electroshock Seizure (MES) Model in mice, Initial Tests; conditions: Mus musculus, ip, MES 50 mA, 60 Hz, 0.2 sec, i.p., 2 hours after injection, 10 mice per dose, read-out: ED50 (effective dose to protect 50% of mice)
Method: The composition was tested using the Maximal Electroshock Seizure (MES) Model. This is an established procedure to provide an indication of a compound's ability to prevent seizure spread.
(§1) Subjects Male, CF-1 male mice (18-25 grams) were used as subjects. They were housed under standard conditions in the vivarium at the CCBR. They were given 2 days (minimum) to acclimate before testing began.
(§2) Drugs and Doses CBD was provided in pure form and in the described composition. Two four-point dose-response curves were done, one for the pure form CBD and one for the described composition. Ten mice were tested at each dose. (Mice were not re-used.) Compounds were injected intraperitoneally. Testing was done 2 hours after injection. Drugs were injected at a constant volume, and were diluted as necessary using a vehicle of 1:1:18 (Cremophor:alcohol:saline). Dilution is necessary to achieve volumes large enough for injection. Doses were: 0 (vehicle), 25, 50, 100, 200 mg/kg. A 400 mg/kg dose was added later to extend the standard CBD curve.
MES Procedure The MES stimulus consisted of 0.2 sec of 60 Hz since-wave current administered at an intensity of 50 mA via corneal electrodes. The percentage of mice protected against the tonic hindlimb extension component of the resulting seizure was measured. Mice were then euthanized following the procedure.

[2] = MES test in mice, Further Tests; conditions: Mus musculus, ip, MES 50 mA, 60 Hz, 0.2 sec, i.p., 2 hours after injection, Litchfield and Wilcoxon method, read-out: ED50 (effective dose to protect 50% of mice)
Excerpt: (§3) Subjects Male, CF-1 male mice (18-25 grams) were used as subjects. They were housed under standard conditions in a vivarium at the University of Toronto (CCBR). They were given 2 days (minimum) to acclimate before testing began.
(§4) Drugs and Doses CBD was provided in the form of: 1) standard CBD isolate, 2) CBD in DHA/EPA without emulsification (2% DHA, 2% EPA, 12% “stabilizer”), 3) CBD emulsified in DHA/EPA to produce larger particles (66.2 nm diameter) and 4) CBD emulsified in DHA/EPA to produce smaller particles (32.7 nm diameter). Drugs were injected intraperitoneally at a constant volume, and were diluted as necessary using a vehicle of 1:1:18 (Cremophor:alcohol:saline). Dilution is necessary to achieve volumes large enough for injection. Doses of CBD ranged from 0 (vehicle) to 400 mg/kg. As in our past studies, the MES stimulus was given 2 hours after injection. Dose-response curves were done for each formulation.
MES Procedure The MES stimulus consisted of 0.2 sec of 60 Hz since-wave current administered at an intensity of 50 mA via corneal electrodes. The percentage of mice protected against the tonic hindlimb extension component of the resulting seizure was measured. […]
(§5) Toxicity Assessment Ataxia (impaired movement) was assessed using the Loscher scale and was done just before the MES test. Loscher scores of 2-5 were scored a “toxicity present”. […]

[3] = Toxicity Assessment: ataxia, Loscher scale, Initial Tests; conditions: just before the MES test, i.p., standard CBD at any dose
Method: as §1, §2
Toxicity Assessment Ataxia (impaired movement) was assessed using the Loscher scale and was done just before the MES test.

[4] = Toxicity Assessment: ataxia, Loscher scale, Further Tests
Excerpt: as §3, §4, §5
The Litchfield/Wilcoxon method could not be applied to the toxicity data for technical reasons, so TD50s were calculated from line plots.

Structure (SMILES): C=C(C)[C@@H]1CCC(C)=C[C@H]1c1c(O)cc(CCCCC)cc1O [regular CBD, cannabidiol]
- ED50 [1]: 162 mg/kg
- ED50 [2]: 146 mg/kg
- signs of toxicity [3]: No mice showed any signs of toxicity
- TD25 ([4]; Loscher scores of 2-5 = toxicity present, i.p., highest dose tested): 400 mg/kg
- TD50 at 2 h ([4]; mouse, in vivo, ip, speculated to be higher than the highest dose tested): > 400 mg/kg
